According to PMC10304470, “Characterization of the Antimicrobial Activities of Trichoplusia ni Cecropin A as a High-Potency Therapeutic against Colistin-Resistant Escherichia coli” (Pharmaceutics, 2023):
Peptide text beside a SMILES is read from it.

Assays:
[1] = test system: Pseudomonas aeruginosa (KCCM 11328); type: cell-based; conditions: KCCM 11328, 16 h
Description: (§1) E. coli (KCTC 1682) was obtained from the Korean Collection for Type Cultures (KCTC, Jeongeup, Republic of Korea), and Acinetobacter baumannii (KCCM 40203) and Pseudomonas aeruginosa (KCCM 11328) from the Korea Culture Center of Microorganisms (KCCM, Seoul, Republic of Korea). Klebsiella pneumoniae (NCCP 16054), colistin-resistant E. coli NMA 1557 (ColREC 1557), NMS 12 (ColREC 12), and colistin-resistant A. baumannii NMS 1915 (ColRAB 1915), as well as colistin-resistant K. pneumoniae NMS 139 (ColRKP 139), were obtained from the National Institute of Health Multidrug Resistant Bacteria Specialized Pathogen Resources Bank (Osong, Republic of Korea).
(§2) The antibacterial abilities of the peptides (T. ni cecropin, cecropin A, polymyxin B, colistin, and melittin) were determined using the broth dilution method as previously reported. The peptides dissolved at 10 mg/mL in deionized water were serially diluted from 64 μM to 0.5 μM in 96-well plates using Mueller–Hinton (MH) broth, and bacteria cultured to exponential growth were added at 2 × 10^5 cells/mL. The group of bacteria that grew untreated in the broth was set as the positive control, and the uninoculated broth as the negative control. Dissolved peptides are colorless and equal to the OD value of the medium only. After 16 h incubation at 37 °C, the absorbance at 600 nm was measured using a SpectraMAX microplate reader (Molecular Devices, San Jose, CA, USA).

[2] = test system: Acinetobacter baumannii (KCCM 40203); type: cell-based; conditions: KCCM 40203, 16 h
Description: as §1, §2

[3] = test system: Klebsiella pneumoniae (NCCP 16054); type: cell-based; conditions: NCCP 16054, 16 h
Description: as §1, §2

[4] = test system: ColREC 1557-stimulated RAW 264.7 cells; experiment: Nitrite (NO) production in ColREC 1557-infected macrophages; type: cell-based, mouse; conditions: 1.3 μM peptide, 1 h before ColREC 1557 infection
Description: (§3) To investigate the inflammatory response induced by ColREC 1557, RAW 264.7 cells (1 × 10^5 cells/well) were treated with various concentrations of peptide (0.6 to 10 μM) 1 h before bacterial infection. The control was an untreated cell. ColREC 1557 that had been cultured in LB broth overnight and sub-cultured to the exponential phase were harvested, suspended in DMEM, and used to infect RAW 264.7 cells to a final concentration of 1 × 10^5 cells/well. Subsequent nitrite and IL-6 detection was performed as described in Section 2.15.

[5] = test system: colistin-resistant E. coli NMS 12 (ColREC 12); type: cell-based, Escherichia coli; conditions: MH broth, 2 × 10^5 cells/mL, 16 h, 37 °C, OD600, >95% killing
Description: as §1, §2

E. coli (KCTC 1682) = type: cell-based, Escherichia coli; conditions: KCTC 1682, 16 h
Description: as §1, §2

[6] = test system: colistin-resistant E. coli NMA 1557 (ColREC 1557); type: cell-based, Escherichia coli; conditions: MH broth, 2 × 10^5 cells/mL, 16 h, 37 °C, OD600, >95% killing
Description: as §1, §2

[7] = test system: LPS-stimulated RAW 264.7 cells; experiment: Nitrite (NO) production in LPS-stimulated macrophages, Griess; type: cell-based, mouse; conditions: 5 μM peptide, 1 h pretreatment, 20 ng/mL LPS, 16 h
Description: Murine macrophage RAW 264.7 cells were used to measure the anti-inflammatory activities of peptides. Culture plates (96-well) were seeded at a density of 1 × 10^5 cells/well and stimulated with 20 ng/mL LPS (O111:B4; Sigma-Aldrich) for 16 h after 1 h pretreatment with each concentration of peptide (0.6 to 10 μM). The control is an untreated cell. The culture supernatant was added to an equal volume of Griess reagent (Sigma-Aldrich), and the absorbance was measured at 540 nm. Nitrite production was quantified using a standard curve constructed using NaNO2.

[8] = test system: ColREC 1557-stimulated RAW 264.7 cells; experiment: IL-6 secretion in ColREC 1557-infected macrophages, ELISA; type: cell-based, mouse; conditions: 1.3 μM peptide, 1 h before ColREC 1557 infection
Description: Interleukin-6 (IL-6)-specific enzyme-linked immunosorbent assays (ELISA; R&D Systems, Minneapolis, MN, USA) were performed according to the method specified by the manufacturer. Briefly, cell culture supernatants were added to immune plates treated with the capture antibody, followed by the detection antibody and streptavidin-horseradish peroxidase. For each step, the plates were washed twice with PBS containing 0.05% Tween 20. The plates were incubated with tetramethylbenzidine substrate (Invitrogen, Carlsbad, CA, USA), and the reaction was stopped with 2 N H2SO4 to measure absorbance at 450 nm. A standard graph of each marker was plotted and quantified.
as §3

Compound: CC[C@H](C)CCCCC(=O)N[C@@H](CCN)C(=O)N[C@H](C(=O)N[C@@H](CCN)C(=O)N[C@H]1CCNC(=O)[C@H]([C@@H](C)O)NC(=O)[C@H](CCN)NC(=O)[C@H](CCN)NC(=O)[C@H](CC(C)C)NC(=O)[C@@H](CC(C)C)NC(=O)[C@H](CCN)NC1=O)[C@@H](C)O [colistin] (HELM PEPTIDE1{[CC[C@H](C)CCCCC(=O)[*:2]].[Dab].T.[Dab].[Dab].[Dab].[dL].L.[Dab].[Dab].T}$PEPTIDE1,PEPTIDE1,5:R3-11:R2$$$V2.0; N-terminus assumed; bridges inferred)
- Minimal Inhibitory Concentration [1]: 1 µM
- Minimal Inhibitory Concentration [2]: 0.25 µM
- Minimal Inhibitory Concentration [3]: 0.25 µM
- inhibition of NO [4]: 24.7%
- Minimal Inhibitory Concentration [5]: 4 µM
- Minimal Inhibitory Concentration (E. coli (KCTC 1682)): 0.25 µM
- Minimal Inhibitory Concentration [6]: 8 µM
- inhibition of NO [7]: over 90%
- inhibition of IL-6 [8]: 18.4%
